Data taken from US20230039219A1, “Improved Cell-Permeable Nuclear Import Inhibitor Synthetic Peptide for Inhibition of Cytokine Storm or Inflammatory Disease and Use Thereof” (priority 2020, published 2023).
Bridge positions count the residues as written; N and C are the ends. Ends that are not written are not given here. Peptide text beside a SMILES is read from it.

Assays:
[1] = test system: LPS/D-Gal acute liver injury model; assay: LPS/D-galactosamine-induced acute liver injury model; details: LPS/D-Gal challenge; FIG. 1, 2, 4
[2] = parameters: species or system C57BL/6 mice; details: mouse, in vivo, iv
Description: To evaluate the pharmacokinetics of iCP-NI in the lungs, 6-8 weeks old C57BL/6 mice were intravenously administered with 100 mg/kg of FITC-conjugated iCP-NI. Subsequently, mice were sacrificed at various time points and lung tissues were obtained for pharmacokinetic analysis. Also, other tissues (brain, heart, liver, spleen, kidney, small/large intestine and pancreas) were collected for distribution of iCP-NI analysis. Representative lung tissue specimens were perfusion-fixed with 4% paraformaldehyde (PFA; BIOSESANG, Cat No. PC2031-100-00) and incubated in 30% sucrose solution overnight at 4° C. Next, specimens were embedded in optimal cutting temperature (OCT) compound (Leica Biosystems, Cat No. 3801480) and cryo-sectioned to a 10 μm thickness onto microscope glass slide. The cryo-sectioned samples were washed thoroughly with PBS and incubated with ammonium chloride (NH4Cl, Sigma-Aldrich, Cat No. A9434) solution for 20 minutes at room temperature (RT). The samples were mounted with DAPI-containing mounting solution (Invitrogen, Cat No. 00-4959-52) and visualized by fluorescence microscopy using a confocal laser scanning microscope system (Leica SP8) and the images were processed with Leica LAS X software).

For “1NLS: linear nuclear localization sequence from NF-κB1 (p50); Table 1 prints VQRKRQKLMP (SEQ ID NO. 8) (NLS) [Structure 1NLS]”, the “effect on survival, comparison in words” value [1] was “not enhanced”.

For `CC[C@H](C)[C@H](N)C(=O)N[C@@H](C)C(=O)N[C@@H](C)C(=O)N[C@H](C(=O)N[C@@H](CC(C)C)C(=O)N[C@@H](C)C(=O)N[C@@H](C)C(=O)N1CCC[C@H]1C(=O)N[C@@H](C)C(=O)N[C@@H](CC(C)C)C(=O)N[C@H](C(=O)N1CCC[C@H]1C(=O)N[C@H]1CSSC[C@@H](C(=O)O)NC(=O)[C@@H]2CCCN2C(=O)[C@H](CCSC)NC(=O)[C@H](CC(C)C)NC(=O)[C@H](CCCCN)NC(=O)[C@H](CCC(N)=O)NC(=O)[C@H](CCCNC(=N)N)NC(=O)[C@H](CCCCN)NC(=O)[C@H](CCCNC(=N)N)NC(=O)[C@H](CCC(N)=O)NC(=O)[C@H](C(C)C)NC1=O)C(C)C)C(C)C` [iCP-NI] (H-IAAVLAAPALVPCVQRKRQKLMPC-OH; disulfide 13-24; N-terminus and C-terminus assumed), the “time high levels remained in lung tissue” value [2] was at least 8 h.

In the case of “cNLS: circular NLS CVQRKRQKLMPC (SEQ ID NO. 1), no aMTD (also: cyclised, mode not given here)”, the “effect on survival, comparison in words” value [1] is reported as “not enhanced”.
